The source of these data is patent publication US5952390A, “10-substituted 1,8-dihydroxy-9(10H) anthracenone pharmaceuticals” (Teva Pharmaceutical Industries Ltd., priority 1998, dated 1999).

pIC50: −log10 of the molar value. Read-outs that look alike come from different tables or passages of the source.

The target of one assay is T1, 5-LO in bovine PMNL (Bos taurus, UniProt F1MQ78).
T1 construct: endogenous in cells; host or cells: polymorphonuclear leukocytes isolated from bovine blood
T1 sequence (F1MQ78 1-674): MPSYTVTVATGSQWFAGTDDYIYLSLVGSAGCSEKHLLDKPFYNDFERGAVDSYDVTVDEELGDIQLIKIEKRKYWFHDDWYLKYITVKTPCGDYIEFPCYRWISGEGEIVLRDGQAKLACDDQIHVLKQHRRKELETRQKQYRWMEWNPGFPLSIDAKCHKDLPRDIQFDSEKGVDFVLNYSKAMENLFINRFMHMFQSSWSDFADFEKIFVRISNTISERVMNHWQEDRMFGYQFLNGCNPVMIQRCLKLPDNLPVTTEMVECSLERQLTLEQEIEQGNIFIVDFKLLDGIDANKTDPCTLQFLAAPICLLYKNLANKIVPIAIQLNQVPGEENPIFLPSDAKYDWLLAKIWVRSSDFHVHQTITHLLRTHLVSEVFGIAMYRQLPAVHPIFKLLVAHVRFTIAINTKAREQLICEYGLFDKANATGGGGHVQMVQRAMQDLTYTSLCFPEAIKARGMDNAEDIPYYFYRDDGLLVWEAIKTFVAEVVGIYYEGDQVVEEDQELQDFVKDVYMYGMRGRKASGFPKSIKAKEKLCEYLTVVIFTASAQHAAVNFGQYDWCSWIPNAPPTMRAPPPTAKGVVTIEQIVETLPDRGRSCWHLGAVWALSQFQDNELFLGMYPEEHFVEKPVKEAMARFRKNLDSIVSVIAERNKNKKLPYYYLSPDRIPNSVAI
In words: Bovine PMNL 5-lipoxygenase assay (inhibition of 5-HETE and LTB4 biosynthesis). The class given is cell-based. The note with it: at 30 μM.

The nature of assay [1]: Reducing activity toward DPPH. The note with it: Table I (Addendum); equimolar amount of test compound. How it is done:
This assay followed generally the procedures of Blois, M. S., "Antioxidant Determinations by the Use of a Stable Free Radical", Nature, 181, 1199-1200 (1958) and Kato, K. et al., "Studies on Scavengers of Active Oxygen Species. 1. Synthesis and Biological Activity of 2-O-Alkylascorbic Acids", J. Med. Chem., 31, 793-798 (1988). In time studies, 1 ml of test compound solution (10^-4 M) was added to 1 ml of DPPH solution (10^-4 M), each in acetone/PBS (1+1 V/V), and the reduction of DPPH was followed spectrophotometrically at 516 nm. Plots of the reciprocal of DPPH concentrations against time gave straight lines, and the second-orderrate constants were obtained from the slopes and are expressed as mean values (n=3-6). In the cases where DPPH was very fast approximate values are given and expressed as kDPPH >100 or kDPPH >>100M^-1s^-1.
Because a radical scavenging antioxidant reacts rapidly with the stable free radical 2,2-diphenyl-1-picrylhydrazyl (DPPH), Blois, M. S., "Antioxidant Determination by the Use of a Stable Free Radical", Nature, 181, 1199-1200 (1958); Kato, K. et al., "Studies on Scavengers of Active Oxygen Species. I. Synthesis and Biological Activity of 2-O-Alkylascorbic Acids", J. Med. Chem., 31, 793-798 (1988), the reactivities of the new compounds with DPPH were determined by decrease in absorbance at 516 nm.

Assay [2] in a line: Lipid peroxidation in bovine brain phospholipid liposomes. Conditions: Table I (Addendum); n = 3 or more; standard errors average 20%; read-out: LPO IC50. How it is done: Phospholipids were prepared essentially as described by Gutteridge, J. M. C., "The Measurement of Malondialdehyde in Peroxidised Ox-Brain Phospholipid Liposomes", Anal. Biochem., 82, 76-82 (1977). Bovine brain, cooled on ice, was freed from blood vessels and washed repeatedly with 0.15M NaCl, pH 7.4. It was cut to pieces and then macerated with an ultra-turrax, passed through a close-meshed sieve, and extracted four times with four times the volume of acetone. The extraction mixture was filtered by suction to remove the acetone, the residue was dried under vacuum, and then repeatedly extracted with petroleum ether (40-60) using twice the volume of the original brain homogenate. The combined extracts were filtered, dried at 45° C., and dissolved in ether (one fifth of the original brain volume). The mixture was treated with five times the volume of acetone, and the resulting precipitate was collected by suction-filtration, dried and stored under N2 at -20° C. in the dark. Bovine brain phospholipids were weighed into glass tubes and shaken in a vortex mixer (Heidolph) in the presence of five small glass beads (.phi. 4 mm) for 1 min. […]
The following reagents were added to glass tubes in the order and at the final concentrations stated. […] The organic layer was separated by centrifugation at 3000 rpm (15 min) and the absorbance at 532 nm was measured against butanol.

`CCCC(=O)C1c2cccc(O)c2C(=O)c2c(O)cccc21` [Butantrone, 10-Butyryl-Dithranol]: the inhibition – broadly, the percentage by which the read-out fell short of the control – at 30 µM amounted to 38% on 5-LO in bovine PMNL (PMNL, Table I (Addendum), read-out: 5-LO percent inhibition (value in parentheses)) and 38% at 5-LO in bovine PMNL (bovine PMNL, read-out: inhibition at 30 μM). The same compound gave a kDPPH in assay [1] of 7.0 ± 0.6 M⁻¹ s⁻¹. Further, the negative logarithm of the IC50 (pIC50) (usually the IC50 on a negative log10 scale, so that one unit is a factor of ten) in assay [2] is 5.40.
